In patent US20140323500A1, “NADPH OXIDASE 4 INHIBITORS AND USE THEREOF” (GENKYOTEX SA, priority 2011, published 2014):
pKi: −log10 of the molar value.

Key:
human Nox2 = biological target: T1, human Nox2 (Homo sapiens, UniProt P04839); assay: ROS production by membranes expressing human Nox2, cell-free Amplex Red assay; assay type: biochemical; settings: cell-free membranes, Amplex Red; Cheng-Prusoff; average of at least three experiments in triplicate; read-out: Ki hNox2
T1 construct: host or cells: T-REx-CHO (hNOX2 T-REx-CHO), tetracycline-induced; membrane fraction
T1 sequence (P04839 2-570 limits assumed): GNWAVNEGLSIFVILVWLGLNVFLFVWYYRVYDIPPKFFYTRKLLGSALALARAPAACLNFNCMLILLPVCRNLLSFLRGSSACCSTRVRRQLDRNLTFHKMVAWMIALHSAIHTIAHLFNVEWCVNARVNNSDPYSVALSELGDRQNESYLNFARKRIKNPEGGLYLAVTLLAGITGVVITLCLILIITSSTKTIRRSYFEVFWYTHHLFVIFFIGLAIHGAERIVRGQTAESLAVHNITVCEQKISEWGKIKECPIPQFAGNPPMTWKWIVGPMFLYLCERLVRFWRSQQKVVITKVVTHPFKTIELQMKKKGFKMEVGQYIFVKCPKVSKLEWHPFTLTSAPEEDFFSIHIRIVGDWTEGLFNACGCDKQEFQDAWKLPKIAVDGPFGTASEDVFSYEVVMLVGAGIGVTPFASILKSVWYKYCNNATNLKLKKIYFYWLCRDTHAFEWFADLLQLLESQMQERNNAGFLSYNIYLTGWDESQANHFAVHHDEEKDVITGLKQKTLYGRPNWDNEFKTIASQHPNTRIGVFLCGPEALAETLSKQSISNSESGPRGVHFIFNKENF
T1 sequence (P13498 2-195 partner limits assumed): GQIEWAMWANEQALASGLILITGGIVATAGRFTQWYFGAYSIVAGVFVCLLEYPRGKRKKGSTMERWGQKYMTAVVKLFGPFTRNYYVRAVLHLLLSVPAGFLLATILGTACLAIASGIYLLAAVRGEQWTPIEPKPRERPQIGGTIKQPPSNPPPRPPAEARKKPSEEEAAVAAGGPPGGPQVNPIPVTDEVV
Excerpt: (§1) The Nox4 activity of Nox4 inhibitors according to the invention may be tested for their activity in the inhibition or reduction of formation of reactive oxygen species (ROS) from oxygen in cell free assays. In order to fully characterise Nox4 inhibitors, Nox subunit-specific cell-free, membrane-based systems have been developed and specific recombinant proteins have been added to membranes heterologously over-expressing their specific iso form. Nox enzymes produce superoxide (O2.−) as primary product, however due to the high instability and reactivity of this molecule which dismutates naturally into hydrogen peroxide (H2O2), therefore, read-out techniques involving probes that do measure H2O2 were used (e.g. using Amplex Red as a probe in order to facilitate consistent and accurate measurements). The activity of the compounds is tested in the following cell free assay using the techniques described here below:
Human Nox1 (NM_007052.4), human NOX2 (NM_000397), and human NOX5 (NM_0245052244) cDNAs were cloned into the pcDNA5/TO (Invitrogen). Human p22 (NM_000101.2) was cloned into pcDNA3.1/Zeo (+) (Invitrogen), and human NOXA1 (AY255769.1) and human NOXO1 (AB097667) were cloned into the bi-cistronic pVITRO1-neo-mcs plasmid (Invivogen).
Cells were transfected by using the FuGENE 6 method. Cells stably expressing functional human Nox1 (hNOX1 T-REx™-CHO) were obtained by co-transfecting T-REx™-CHO cells with human Nox1, human p22, human NOXA1 and human NOXO1. Cells stably expressing functional human Nox2 (hNOX2 T-REx™-CHO) were obtained by co-transfecting T-REx™-CHO cells with human nox2, human p22 and human cofactors. Cells stably expressing functional human Nox5 (hNOX5 T-REx™-CHO) were obtained by transfecting T-REx™-CHO cells with human Nox5. Co-transfected cells were selected with the appropriate antibiotics for 10 days. For the selection, hygromycin and G418 were used at 2 mg/ml and zeocin at 0.1 mg/ml. For the establishment of each stably transfected cell line, a pool of antibiotic-resistant cells was generated. Cells were cloned by limiting dilution. Several clones were established and investigated for ROS production upon tetracycline-induced hNox expression using a cellular AR assay. The expression of NOXes was done with tetracycline (1 μg/ml) during 24 h prior to the assay.
(§2) Human Nox1, Nox2, Nox4, and Nox5 expression were induced with Tetracycline (1 μg/ml) during 24 h prior to the membrane preparation Membranes from transfected cells overexpressing Nox1, Nox2, Nox4 or Nox5 were prepared as previously described in Palicz et al., 2001, J. Biol. Chem., 76, 3090-3097. After resuspension in sonication buffer (11% sucrose, 120 mM NaCl, 1 mM EGTA in PBS, pH 7.4 for Nox4- or NOX5-expressing cells) or in relax buffer (10 mM Pipes, 3 mM NaCl, 3.5 mM MgCl2, 0.1M KCl, pH 7.4), cells were broken by sonication and centrifuged (200 g, 10 min). The supernatant was layered onto a 17/40% (w/v) discontinuous sucrose gradient and centrifuged (150,000×g for 60 min). Membrane fractions were collected from the 17/40% interface and were stored at −80° C. Protein concentration was determined with the Bradford reagent.
(§3) Reactive Oxygen Species (ROS) production by membranes expressing either human Nox1, or human Nox2 or human Nox4 or human Nox5 or by xanthine/xanthine oxidase were measured using the Amplex Red (AR) method following a slightly modified version of the manufacturer's instruction manual (Invitrogen). Briefly, membranes or xanthine were incubated in PBS with Amplex Red, Horse Radish Peroxidase (HRP) and appropriated co-factors. ROS production was induced by addition of NADPH to NOX-expressing membrane or by addition of xanthine to xanthine oxidase. Non-specific signal was measured in the absence of membranes or in the absence of xanthine.
Antagonist activity of compounds was measured in the presence of increasing concentrations ranging from 1 nM to 100 μM. […]

human Nox4 = biological target: T2, human Nox4 (Homo sapiens, UniProt Q9NPH5); assay: ROS production by membranes expressing human Nox4, cell-free Amplex Red assay; assay type: biochemical; settings: cell-free membranes, Amplex Red; Cheng-Prusoff; average of at least three experiments in triplicate; read-out: Ki hNox4
T2 construct: expressed in transfected cells; host or cells: T-REx-293 (hNOX4 T-REx-293), tetracycline-induced; membrane fraction
T2 sequence (Q9NPH5 1-578): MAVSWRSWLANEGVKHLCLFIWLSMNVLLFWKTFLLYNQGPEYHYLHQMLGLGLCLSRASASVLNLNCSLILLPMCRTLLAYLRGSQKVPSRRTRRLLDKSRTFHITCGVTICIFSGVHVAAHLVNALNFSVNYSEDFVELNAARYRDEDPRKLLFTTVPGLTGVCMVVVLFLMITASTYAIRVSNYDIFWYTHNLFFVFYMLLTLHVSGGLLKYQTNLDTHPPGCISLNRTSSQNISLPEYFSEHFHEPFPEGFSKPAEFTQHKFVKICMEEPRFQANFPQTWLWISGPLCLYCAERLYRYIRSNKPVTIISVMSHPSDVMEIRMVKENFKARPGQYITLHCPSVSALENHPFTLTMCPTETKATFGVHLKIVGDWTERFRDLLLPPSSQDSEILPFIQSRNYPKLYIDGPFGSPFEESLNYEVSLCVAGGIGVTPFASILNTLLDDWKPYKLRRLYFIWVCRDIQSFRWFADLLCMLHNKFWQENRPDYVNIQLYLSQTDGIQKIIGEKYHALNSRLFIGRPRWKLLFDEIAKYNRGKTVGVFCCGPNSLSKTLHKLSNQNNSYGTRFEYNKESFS
T2 sequence (P13498 2-195 partner limits assumed): T1 sequence (P13498 2-195 partner limits assumed)
Excerpt: as §1
Transfected T-REx™-CHO cells (R718-07) purchased from Invitrogen and T-REx™-293 cell line expressing hNOX4 (hNOX4 T-REx™-293) (Serrander et al., 2007, Biochem. J., 406, 105-114) were cultured in […]. Both media were supplemented with 10% FBS, 2 mM glutamine, penicillin (100 U/ml) and streptomycin (100 μg/ml). Selection pressure was maintained by continuous inclusion of blasticidin (5 μg/ml), and/or G418 (0.25 mg/ml), and/or Hygromycin (0.25 mg/ml) and/or zeocin (0.025 mg/ml).
as §2, §3
Antagonist activity of compounds was measured in the presence of increasing concentrations ranging from 1 nM to 100 μM. After an incubation of 20 min in a plate shaker and incubator (Titramax 1000, VWR) at 37° C. with weak agitation (300 rpm), ROS levels were measured for 10 min in a BMG Fluostar microplate reader with excitation and emission wavelengths of 544 nm and 590 nm respectively.
Data were analysed using Prism (GraphPad Software Inc., San Diego, Calif.). Ki values were calculated using the Cheng-Prusoff equation and represent the average of at least three individual experiments performed in triplicate (Table 1). Nox4 inhibition was compared to that measured for Simvastatin (Enzo Life Sciences, CAS Number 79902-63-9) using the method described in Example 1. Reactive Oxygen Species (ROS) production by membranes expressing human Nox4 was measured using the Amplex Red (AR).

pKi (human Nox2) | pKi (human Nox4) | Compound
6.09 | 7.05 | O=c1c2c(-c3ccc(Cl)cc3)n(Cc3ccncc3)c(=O)cc2[nH]n1-c1ccccc1Cl [(18), 2-(2-chlorophenyl)-4-(4-chlorophenyl)-5-(pyridin-4-ylmethyl)-1H-pyrazolo[4,3-c]pyridine-3,6(2H,5H)-dione]
6.19 | 7.04 | O=c1c2c(-c3ccc(Cl)cc3F)n(Cc3ccncc3)c(=O)cc2[nH]n1-c1ccccc1Cl [(19), 4-(4-chloro-2-fluorophenyl)-2-(2-chlorophenyl)-5-(pyridin-4-ylmethyl)-1H-pyrazolo[4,3-c]pyridine-3,6(2H,5H)-dione]
6.26 | 7.02 | COc1ccc(-c2c3c(=O)n(-c4ccccc4Cl)[nH]c3cc(=O)n2Cc2cccnc2)c(F)c1 [(21), 2-(2-chlorophenyl)-4-(2-fluoro-4-methoxyphenyl)-5-(pyridin-3-ylmethyl)-1H-pyrazolo[4,3-c]pyridine-3,6(2H,5H)-dione]
6.03 | 7.01 | COc1ccc(-c2c3c(=O)n(-c4ccccc4OC)[nH]c3cc(=O)n2Cc2ccn(C)n2)c(F)c1 [(22), 4-(2-fluoro-4-methoxyphenyl)-2-(2-methoxyphenyl)-5-[(1-methyl-1H-pyrazol-3-yl)methyl]-1H-pyrazolo[4,3-c]pyridine-3,6(2H,5H)-dione]
5.66 | 7.00 | O=c1c2c(-c3ccc(Cl)cc3)n(Cc3cccnc3)c(=O)cc2[nH]n1-c1ccccc1Cl [(25), 2-(2-chlorophenyl)-4-(4-chlorophenyl)-5-(pyridin-3-ylmethyl)-1H-pyrazolo[4,3-c]pyridine-3,6(2H,5H)-dione]
6.25 | 6.98 | COc1cc(Cn2c(-c3ccc(Cl)cc3F)c3c(=O)n(-c4ccccc4Cl)[nH]c3cc2=O)ccn1 [(26), 4-(4-chloro-2-fluorophenyl)-2-(2-chlorophenyl)-5-[(2-methoxypyridin-4-yl)methyl]-1H-pyrazolo[4,3-c]pyridine-3,6(2H,5H)-dione]
6.23 | 6.97 | COc1ccc(-c2c3c(=O)n(-c4ccccc4Cl)[nH]c3cc(=O)n2Cc2ccncc2)c(F)c1 [(27), 2-(2-chlorophenyl)-4-(2-fluoro-4-methoxyphenyl)-5-(pyridin-4-ylmethyl)-1H-pyrazolo[4,3-c]pyridine-3,6(2H,5H)-dione]
6.18 | 6.95 | O=c1c2c(-c3ccccc3F)n(Cc3ccncc3)c(=O)cc2[nH]n1-c1ccccc1Cl [(29), 2-(2-chlorophenyl)-4-(2-fluorophenyl)-5-(pyridin-4-ylmethyl)-1H-pyrazolo[4,3-c]pyridine-3,6(2H,5H)-dione]
5.97 | 6.95 | Cc1c2c(=O)n(-c3ccccc3Cl)[nH]c2cc(=O)n1Cc1ccn(C)n1 [(30), 2-(2-chlorophenyl)-4-methyl-5-[(1-methyl-1H-pyrazol-3-yl)methyl]-1H-pyrazolo[4,3-c]pyridine-3,6(2H,5H)-dione]
5.74 | 6.94 | CNc1cccc(-c2c3c(=O)n(-c4ccccc4Cl)[nH]c3cc(=O)n2C)c1 [(32), 2-(2-chlorophenyl)-5-methyl-4-[3-(methylamino)phenyl]-1H-pyrazolo[4,3-c]pyridine-3,6(2H,5H)-dione]
6.19 | 6.92 | O=c1c2c(-c3ccccc3F)n(Cc3ccccn3)c(=O)cc2[nH]n1-c1ccccc1Cl [(34), 2-(2-chlorophenyl)-4-(2-fluorophenyl)-5-(pyridin-2-ylmethyl)-1H-pyrazolo[4,3-c]pyridine-3,6(2H,5H)-dione]
6.18 | 6.92 | O=c1c2c(-c3cc(F)ccc3F)n(Cc3ccncc3)c(=O)cc2[nH]n1-c1ccccc1Cl [(35), 2-(2-chlorophenyl)-4-(2,5-difluorophenyl)-5-(pyridin-4-ylmethyl)-1H-pyrazolo[4,3-c]pyridine-3,6(2H,5H)-dione]
5.94 | 6.90 | O=c1c2c(-c3ccc(Cl)cc3)n(Cc3nccs3)c(=O)cc2[nH]n1-c1ccccc1Cl [(36), 2-(2-chlorophenyl)-4-(4-chlorophenyl)-5-(1,3-thiazol-2-ylmethyl)-1H-pyrazolo[4,3-c]pyridine-3,6(2H,5H)-dione]
